Data on 8 compounds can be found in EP0233686A2, “Bis phenyl ethanol amines and bis phenyoxypropanolamines having a beta-agonist activity” (BEECHAM GROUP PLC, priority 1986, dated 1987).

This assay relates to Female CFLP mice. Description: Hypoglycaemic activity: oral compound, then subcutaneous glucose load in fasted mice; area under the blood glucose curve over 2 hours compared with water controls. The following applies: Mus musculus, mice fasted for 24 hours, glucose 1g/kg s.c. 30 minutes after dosing, 2 hour AUC vs water controls, read-out: % reduction in area under blood glucose curve; for inhibition in vivo at 3 µmol/kg: dose 3 µmol/Kg p.o. It is filed as in vivo. On the procedure: Female CFLP mice, weighing approximately 25g, were fasted for 24 hours prior to the study. The compounds under study were administered orally as an aqueous solution to each of 6 mice. 30 minutes later a blood sample (20ul) was obtained from the tail for the analysis of blood glucose. Immediately after taking this blood sample, glucose (lg/kg body weight) was administered subcutaneously to each mouse. 6 mice were -given water as a control. Blood samples were then obtained from each mouse at 30 minute intervals for 120 minutes. Compounds that produced a significant (p>0.05) reduction of blood glucose, compared with control mice given water, at any time interval were considered active. The area under the blood glucose curve over the 2 hour period after the administration of the glucose was calculated for each compound and compared with the value for control animals.

Structures are written as SMILES. Structures can show the parent of a compound that is named as a salt.

In the case of `C[C@H](Cc1ccc(S(=O)(=O)c2ccc(C[C@@H](C)NC[C@H](O)c3cccc(Cl)c3)cc2)cc1)NC[C@H](O)c1cccc(Cl)c1` [Example 6, [R,R,R,R]-α,α'-[Sulphonylbis[4,1-phenylene(1-methyl-2,1-ethanediyl)iminomethylene]]bis|3-chlorobenzenemethanol] dihydrochloride], the inhibition in vivo at 3 µmol/kg was 30%. For the compound `C[C@H](Cc1ccc(OCCCCCOc2ccc(C[C@@H](C)NC[C@H](O)c3cccc(Cl)c3)cc2)cc1)NC[C@H](O)c1cccc(Cl)c1` [Example 20, [R,R,R,R]-α,α'-[1,5-Pentanediylbis[oxy-4,1-phenylene (1-methyl-2,1-ethanediyl)iminomethylene]] bis[3-chlorobenzenemethanol], dihydrochloride], for the setting “dose 0.1 µmol/Kg p.o.”, the inhibition in vivo at 0.1 µmol/kg turned out to be 51%.

On to `C[C@H](Cc1ccc(C(O)(CO)c2ccc(C[C@@H](C)NC[C@H](O)c3cccc(Cl)c3)cc2)cc1)NC[C@H](O)c1cccc(Cl)c1` [Example 7, [R,R,R,R]-1,1-di[4-[2-[[2-(3-chlorophenyl)-2-hydroxyethyl]amino]propyl]phenyl]-1,2-ethanediol, dihydrochloride], for which, where the note is “dose 2.5 µmol/Kg p.o.”, the inhibition in vivo at 2.5 µmol/kg was found to be 17%.

As for `C[C@H](Cc1ccc(CNCCCCNCc2ccc(C[C@@H](C)NC[C@H](O)c3cccc(Cl)c3)cc2)cc1)NC[C@H](O)c1cccc(Cl)c1` [Example 16, [R,R,R,R]-α,α'-[1,4-Butanediylbis[iminomethylene-4,1-phenylene(1-methyl-2,1-ethanediyl)iminomethylene]]bis [3-chlorobenzenemethanol, tetrahydrochloride], the inhibition in vivo at 3 µmol/kg stood at 8%.

For the compound `C[C@H](Cc1ccc(CCCCCCc2ccc(C[C@@H](C)NC[C@H](O)c3cccc(Cl)c3)cc2)cc1)NC[C@H](O)c1cccc(Cl)c1` [Example 19, [R,R,R,R]-α,α'-[1,6-Hexanediylbis[4,1-phenylene (1-methyl-2,1-ethanediyl)iminomethylene]] bis[3-chlorobenzenemethanol], dihydrochloride], the inhibition in vivo at 10 µmol/kg (dose 10 µmol/Kg p.o.) was determined as 11%. Take `C[C@H](Cc1ccc(OCCCCCCCCCOc2ccc(C[C@@H](C)NC[C@H](O)c3cccc(Cl)c3)cc2)cc1)NC[C@H](O)c1cccc(Cl)c1` [Example 13, [R,R,R,R,]-α,α'[1,9-Nonanediylbis[oxy-4,1-phenylene (1-methyl-2,1-ethanediyl)iminomethylene]]bis[3-chlorobenzenemethanol], dihydrochloride]: the inhibition in vivo at 3 µmol/kg was 34%. As to `C[C@H](Cc1ccc(OCCCCCCOc2ccc(C[C@@H](C)NC[C@H](O)c3cccc(Cl)c3)cc2)cc1)NC[C@H](O)c1cccc(Cl)c1` [Example 3, [R,R,R,R]-α,α'[1,6-Hexanediylbis[oxy-4,1-phenylene(1-methyl-2,1-ethanediyl)iminomethylene]]bis[3-chlorobenzenemethanol], dihydrochloride], under “dose 1.0 µmol/Kg p.o.”, the inhibition in vivo at 1 µmol/kg was determined as 55%. On to `C[C@H](Cc1ccc(OCC(=O)NCCNC(=O)COc2ccc(C[C@@H](C)NC[C@H](O)c3cccc(Cl)c3)cc2)cc1)NC[C@H](O)c1cccc(Cl)c1` [Example 1, [R,R,R,R]-N,N'-(1,2-Ethanediyl)bis[2-[4-[2-[(2-(3-chlorophenyl)-2-hydroxyethyl)amino]propyl]phenoxy]acetamide]], for which the inhibition in vivo at 12.5 µmol/kg (dose 12.5 µmol/Kg p.o.) is 43%.
